Experimental data published in ChEMBL document CHEMBL1201862, “PubChem BioAssay data set” (2004).
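96-well plates; 48 h exposure; 5 concentrations. Endpoints by linear interpolation between flanking doses. Not reached: highest tested concentration assigned. GI50 is the concentration that inhibits growth by half.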 Calls of active or inactive are those of the source. Rule as the data show it: active = GI50 up to about 1.1 µM and inactive = higher.

Experiments:
Assay in all cases: DTP human tumour cell line panel, 48 h
SNB-75 = system: SNB-75
OVCAR-3 = system: OVCAR-3
SK-OV-3 = system: SK-OV-3
NCI-H23 = system: NCI-H23
SW-620 = system: SW-620
NCI-H226 = system: NCI-H226
RXF 393 = system: RXF 393
IGROV-1 = system: IGROV-1
HCT-15 = system: HCT-15
EKVX = system: EKVX
SF-268 = system: SF-268
HOP-62 = system: HOP-62
UACC-62 = system: UACC-62
LOX IMVI = system: LOX IMVI
OVCAR-8 = system: OVCAR-8
SNB-19 = system: SNB-19
M14 = system: M14
PC-3 = system: PC-3
MCF7 = system: MCF7

Row | SMILES | GI50 (SNB-75) | GI50 (OVCAR-3) | GI50 (SK-OV-3) | GI50 (NCI-H23) | GI50 (SW-620) | GI50 (NCI-H226) | GI50 (RXF 393) | GI50 (IGROV-1) | GI50 (HCT-15) [µM] | GI50 (EKVX) | GI50 (SF-268) | GI50 (HOP-62) | GI50 (UACC-62) | GI50 (LOX IMVI) | GI50 (OVCAR-8) | GI50 (SNB-19) | GI50 (M14) | GI50 (PC-3) | GI50 (MCF7)
1 | COC1=C(C(=O)OC(C)(C)C)C23CCCCC2(C(C(=O)OC(C)(C)C)=C(OC)C3C(=O)OC(C)(C)C)C1C(=O)OC(C)(C)C (centres undefined) | 84.5 µM (inactive) | 7.8 µM (inactive) | > 100 µM (inactive) | 21.5 µM (inactive) | 60.3 µM (inactive) | 42.7 µM (inactive) | 27.6 µM (inactive) | 49.2 µM (inactive) | 15.2 | 50.7 µM (inactive) | > 100 µM (inactive) | > 100 µM (inactive) | 54.8 µM (inactive) | 34.4 µM (inactive) | 59.6 µM (inactive) | > 100 µM (inactive) | 7.89 µM (inactive) | – | –
2 | CS/C(C#N)=C(\C#N)SC | 52.2 µM (inactive) | 1.77 µM (inactive) | – | 5.61 µM (inactive) | 4.47 µM (inactive) | 2.55 µM (inactive) | 1.82 µM (inactive) | 6.25 µM (inactive) | 2.23 | 19 µM (inactive) | 11.9 µM (inactive) | 16.6 µM (inactive) | 2.94 µM (inactive) | 2.5 µM (inactive) | 2.74 µM (inactive) | 25.7 µM (inactive) | 2.48 µM (inactive) | 15.2 µM (inactive) | 2.22 µM (inactive)
3 | CCCCCCCCCCCCCP(=O)(O)O | 23.2 µM (inactive) | > 100 µM (inactive) | > 100 µM (inactive) | > 100 µM (inactive) | > 100 µM (inactive) | > 100 µM (inactive) | 35.5 µM (inactive) | > 100 µM (inactive) | > 100 | > 100 µM (inactive) | > 100 µM (inactive) | > 100 µM (inactive) | > 100 µM (inactive) | > 100 µM (inactive) | > 100 µM (inactive) | 67.1 µM (inactive) | > 100 µM (inactive) | – | –
4 | N#CCCN(CCC#N)c1ccc(C(Sc2ccccc2)C(NC(=O)c2cc([N+](=O)[O-])ccc2Cl)C(=O)Sc2ccccc2)cc1 (centres undefined) | 5.41 µM (inactive) | 2.56 µM (inactive) | 5.42 µM (inactive) | 5.06 µM (inactive) | 2.19 µM (inactive) | 2.02 µM (inactive) | 2.09 µM (inactive) | 1.92 µM (inactive) | 3.45 | 1.34 µM (inactive) | 2.35 µM (inactive) | 3.24 µM (inactive) | 1.68 µM (inactive) | 1.91 µM (inactive) | 1.96 µM (inactive) | 3.54 µM (inactive) | 3.32 µM (inactive) | – | –
5 | N#CC(C(=N/NC(N)=S)/C(=N/NC(N)=S)C(C#N)c1ccc(Cl)cc1)c1ccc(Cl)cc1 (centres undefined) | 31.3 µM (inactive) | 80 µM (inactive) | > 100 µM (inactive) | 65.5 µM (inactive) | 41.7 µM (inactive) | > 100 µM (inactive) | 47.3 µM (inactive) | > 100 µM (inactive) | 83.8 | > 100 µM (inactive) | > 100 µM (inactive) | > 100 µM (inactive) | 59.6 µM (inactive) | > 100 µM (inactive) | 53.8 µM (inactive) | > 100 µM (inactive) | > 100 µM (inactive) | – | –
6 | COc1ccc(C(C)Nc2cc(OC)c(OC)c(OC)c2)cc1 (centres undefined) | 5.75 µM (inactive) | 2.69 µM (inactive) | 4.4 µM (inactive) | 3.72 µM (inactive) | 2.88 µM (inactive) | 14.8 µM (inactive) | 3.27 µM (inactive) | 7.13 µM (inactive) | 3 | > 24.9 µM (inactive) | 2.9 µM (inactive) | 2.88 µM (inactive) | 2.91 µM (inactive) | 10.9 µM (inactive) | 7.16 µM (inactive) | > 25.2 µM (inactive) | 6.21 µM (inactive) | – | –
7 | COc1c(C)c2c(c3c1c(=O)c1ccccc1n3C)C=CC(C)(C)O2 | 20.4 µM (inactive) | 19.6 µM (inactive) | 12.7 µM (inactive) | 27.1 µM (inactive) | 38 µM (inactive) | 36.7 µM (inactive) | 51.5 µM (inactive) | 30.3 µM (inactive) | 18.2 | 47.1 µM (inactive) | 26.4 µM (inactive) | 27.2 µM (inactive) | 14.4 µM (inactive) | 15.2 µM (inactive) | 25.6 µM (inactive) | 41.3 µM (inactive) | 15.5 µM (inactive) | – | –
8 | Cc1cn(Cc2ccccc2CCl)c(=O)[nH]c1=O | 14.6 µM (inactive) | 4.24 µM (inactive) | 26.4 µM (inactive) | 10.2 µM (inactive) | 8.15 µM (inactive) | – | 8 µM (inactive) | 3.46 µM (inactive) | 14.8 | 16.4 µM (inactive) | 13 µM (inactive) | 15.6 µM (inactive) | 4.68 µM (inactive) | – | 12.1 µM (inactive) | 12.3 µM (inactive) | 12.9 µM (inactive) | 16 µM (inactive) | 4.84 µM (inactive)
9 | O=C(O)CCC(=O)OCN1C(=O)C2C3C=CC(C2C1=O)C1C2C(=O)N(COC(=O)CCC(=O)O)C(=O)C2C31 (centres undefined) | > 95.7 µM (inactive) | > 100 µM (inactive) | > 100 µM (inactive) | > 100 µM (inactive) | 38.4 µM (inactive) | > 100 µM (inactive) | > 100 µM (inactive) | > 100 µM (inactive) | 32.4 | > 100 µM (inactive) | > 78.9 µM (inactive) | > 100 µM (inactive) | > 100 µM (inactive) | > 45.5 µM (inactive) | 56.9 µM (inactive) | > 100 µM (inactive) | > 100 µM (inactive) | – | –
10 | Cc1ccc(S(=O)(=O)OI(O)CC(F)(F)F)cc1 | > 100 µM (inactive) | > 100 µM (inactive) | > 100 µM (inactive) | > 100 µM (inactive) | > 100 µM (inactive) | > 100 µM (inactive) | > 100 µM (inactive) | > 100 µM (inactive) | > 100 | > 100 µM (inactive) | > 100 µM (inactive) | > 100 µM (inactive) | > 100 µM (inactive) | > 100 µM (inactive) | > 100 µM (inactive) | – | > 100 µM (inactive) | > 100 µM (inactive) | > 100 µM (inactive)
11 | Cc1cccc(NC(=O)c2cccc([N+](=O)[O-])c2O)c1C | 22.8 µM (inactive) | 18.1 µM (inactive) | 28.4 µM (inactive) | 17.5 µM (inactive) | 37.9 µM (inactive) | 22.1 µM (inactive) | 12.6 µM (inactive) | 26.7 µM (inactive) | 31.4 | 26.7 µM (inactive) | 33.2 µM (inactive) | 17.8 µM (inactive) | 28 µM (inactive) | 23 µM (inactive) | 33.7 µM (inactive) | 18.7 µM (inactive) | 41.5 µM (inactive) | 20.2 µM (inactive) | 27.4 µM (inactive)
12 | COc1ccc(Nc2nc3c(N)cc(C(F)(F)F)cc3nc2-c2ccccc2)cc1OC | 4.85 µM (inactive) | 18.8 µM (inactive) | 12.7 µM (inactive) | 32.9 µM (inactive) | 57.4 µM (inactive) | 24.2 µM (inactive) | 25.7 µM (inactive) | 22.3 µM (inactive) | 33.4 | 18.5 µM (inactive) | 16.5 µM (inactive) | 24.9 µM (inactive) | 19.7 µM (inactive) | 40.6 µM (inactive) | 15.1 µM (inactive) | 19.8 µM (inactive) | 28.6 µM (inactive) | – | –
13 | COc1cccc(N2C(=O)c3c(c4[nH]c5ccccc5c4c4ccc(C(C)(C)C)cc34)C2=O)c1 | > 100 µM (inactive) | > 100 µM (inactive) | > 100 µM (inactive) | > 100 µM (inactive) | > 100 µM (inactive) | > 100 µM (inactive) | > 100 µM (inactive) | > 100 µM (inactive) | > 100 | > 100 µM (inactive) | > 100 µM (inactive) | > 100 µM (inactive) | > 100 µM (inactive) | > 100 µM (inactive) | > 100 µM (inactive) | > 100 µM (inactive) | > 100 µM (inactive) | – | –
14 | CCOC(=O)c1cc(=O)n(C)c(=O)n1C | > 100 µM (inactive) | > 100 µM (inactive) | > 100 µM (inactive) | > 100 µM (inactive) | > 100 µM (inactive) | > 100 µM (inactive) | > 100 µM (inactive) | > 100 µM (inactive) | > 100 | > 100 µM (inactive) | > 100 µM (inactive) | > 100 µM (inactive) | > 100 µM (inactive) | > 100 µM (inactive) | > 100 µM (inactive) | > 100 µM (inactive) | > 100 µM (inactive) | – | –
15 | N#C[C@](CO)(NC(=O)OCc1ccccc1)C(F)F | > 100 µM (inactive) | > 100 µM (inactive) | > 100 µM (inactive) | > 100 µM (inactive) | > 100 µM (inactive) | > 100 µM (inactive) | > 100 µM (inactive) | > 100 µM (inactive) | > 100 | > 100 µM (inactive) | > 100 µM (inactive) | > 100 µM (inactive) | > 100 µM (inactive) | > 100 µM (inactive) | > 100 µM (inactive) | > 100 µM (inactive) | > 100 µM (inactive) | > 100 µM (inactive) | –
16 | O=C(O)CNc1ccc2c(c1)Cc1cc(Br)ccc1-2 | 34.6 µM (inactive) | 28.5 µM (inactive) | 26.5 µM (inactive) | 18 µM (inactive) | 24.2 µM (inactive) | 21.2 µM (inactive) | 31 µM (inactive) | 18 µM (inactive) | 31.1 | 5.2 µM (inactive) | 28.5 µM (inactive) | > 44.6 µM (inactive) | 17.4 µM (inactive) | 26.6 µM (inactive) | 23.9 µM (inactive) | 24.3 µM (inactive) | 21.8 µM (inactive) | 27.2 µM (inactive) | > 38.4 µM (inactive)
